{"source": "patent US20230023092A1", "about": "“TREATMENT OF DEPRESSION AND OTHER VARIOUS DISORDERS WITH PSILOCYBIN” (COMPASS […], priority 2019, published 2023)", "key": {"[1]": {"assay": "Solubility and hygroscopicity of psilocybin (Polymorph A or A′)", "type": "physicochemical", "details": "in Water; form Polymorph A or A′", "from_the_text": "In some embodiments, the psilocybin of the disclosure in the form Polymorph A or A′ has the general properties illustrated in Table D."}, "healthy subjects [2]": {"system": "healthy subjects", "assay": "CANTAB Paired Associates Learning (PALTEA)", "type": "in vivo, human", "details": "Day 28", "from_the_text": "In some embodiments, the Paired Associates Learning (PAL) test is utilized to evaluate safety and/or efficacy of psilocybin. The PAL task is a measure of visuo-spatial memory in which study subjects are required to remember locations at which visual stimuli are located. […] One or more of them will contain a pattern. […] If the subject makes an error, the boxes are opened in sequence again to remind the subject of the locations of the patterns. Increased difficulty levels can be used to test high-functioning, healthy individuals. The primary metric for this test is the number of errors made. This test takes approximately 8 min to complete. […]\nThe following list of outcome measures are non-exhaustive. • a. The short-term change from Baseline (Day −1 [Visit 2]) to Day 7 (Visit 5) in cognitive measures of attention, spatial and working memory and executive function was measured by a composite score of the CANTAB Panel (Spatial Working Memory [SWM], Rapid Visual Information Processing [RVP], Paired Associates Learning [PAL]). • b. The short-term change from Baseline (Day −1 [Visit 2]) to Day 7 (Visit 5) in Social Cognition Panel scales (Pictorial Empathy Test [PET], Reading the Mind in the Eyes Test [RMET], Toronto Empathy Questionnaire [TEQ], Social Value Orientation [SVO], Scale of Social Responsibility [SSR]). • c. […]"}, "healthy subjects [3]": {"system": "healthy subjects", "assay": "Reading the Mind in the Eyes Test (RMET)", "type": "in vivo, human", "from_the_text": "In some embodiments, Reading the Mind in the Eyes Test (RMET) is utilized to evaluate the safety and/or efficacy of psilocybin. The RMET has 36 items, in which subjects are presented with a photograph of the eyes region of the face and must choose 1 of 4 adjectives or phrases to describe the mental state of the person pictured. A definition handout is provided at the beginning of the task and a practice item precedes the first trial.\nThe Pictorial Empathy Test (PET), Reading the Mind in the Eyes Test (RMET), Scale of Social Responsibility (SSR), Social Value Orientation (SVO), and Toronto Empathy Questionnaire (TEQ) were performed. Table 20 summarizes the results of the mixed model for repeated measures (MMRM) analysis for each of the aforementioned social cognition panel scales measured on Day 7 and Day 84 after study drug administration."}}}
{"smiles": "CN(C)CCc1c[nH]c2cccc(OP(=O)(O)O)c12", "note": "[Psilocybin, psilocybin]", "values": [{"measurement": "solubility", "setting": "[1]", "result": "~15", "unit": "mg/mL"}, {"measurement": "PALTEA improvement compared to placebo (LS mean difference from placebo)", "setting": "healthy subjects [2]; 10 mg", "result": "~2", "unit": "point"}, {"measurement": "PALTEA improvement compared to placebo (LS mean difference from placebo)", "setting": "healthy subjects [2]; 25 mg", "result": "~2", "unit": "point"}, {"measurement": "RMET change from baseline (LS mean)", "setting": "healthy subjects [3]; Day 7, psilocybin 10 mg", "result": 0.4}, {"measurement": "RMET change from baseline, LS mean difference", "setting": "healthy subjects [3]; Day 7, psilocybin 10 mg - placebo", "result": 0.1}, {"measurement": "RMET change from baseline (LS mean)", "setting": "healthy subjects [3]; Day 7, psilocybin 25 mg", "result": 0.4}, {"measurement": "RMET change from baseline, LS mean difference", "setting": "healthy subjects [3]; Day 7, psilocybin 25 mg - 10 mg", "result": 0.0}, {"measurement": "RMET change from baseline, LS mean difference", "setting": "healthy subjects [3]; Day 7, psilocybin 25 mg - placebo", "result": 0.2}, {"measurement": "RMET change from baseline (LS mean)", "setting": "healthy subjects [3]; Day 84, psilocybin 10 mg", "result": 0.1}, {"measurement": "RMET change from baseline, LS mean difference", "setting": "healthy subjects [3]; Day 84, psilocybin 10 mg - placebo", "result": 0.2}, {"measurement": "RMET change from baseline (LS mean)", "setting": "healthy subjects [3]; Day 84, psilocybin 25 mg", "result": 0.4}, {"measurement": "RMET change from baseline, LS mean difference", "setting": "healthy subjects [3]; Day 84, psilocybin 25 mg - 10 mg", "result": 0.3}, {"measurement": "RMET change from baseline, LS mean difference", "setting": "healthy subjects [3]; Day 84, psilocybin 25 mg - placebo", "result": 0.5}]}
